The numbers were not newly measured in patent US20090053275A1, “Foam/spray producing compositions and dispencing system therefor” (priority 2000, published 2009), which cites them from elsewhere.

The structures appear in SMILES notation.

As to `Oc1cc(Cl)ccc1Oc1ccc(Cl)cc1Cl` [triclosan], the water solubility result is “not water soluble”.
